Measurements taken from patent US8921576B2, “Spiroindoline compound, and medicinal agent comprising same” (Kowa Company, Ltd., priority 2011, dated 2014).

Target: T1, GST-GK derived from human liver GK (Homo sapiens, UniProt P35557)
T1 construct: made in house; host or cells: Escherichia coli DH5α
T1 sequence (P35557 1-466 isoform P35557-2): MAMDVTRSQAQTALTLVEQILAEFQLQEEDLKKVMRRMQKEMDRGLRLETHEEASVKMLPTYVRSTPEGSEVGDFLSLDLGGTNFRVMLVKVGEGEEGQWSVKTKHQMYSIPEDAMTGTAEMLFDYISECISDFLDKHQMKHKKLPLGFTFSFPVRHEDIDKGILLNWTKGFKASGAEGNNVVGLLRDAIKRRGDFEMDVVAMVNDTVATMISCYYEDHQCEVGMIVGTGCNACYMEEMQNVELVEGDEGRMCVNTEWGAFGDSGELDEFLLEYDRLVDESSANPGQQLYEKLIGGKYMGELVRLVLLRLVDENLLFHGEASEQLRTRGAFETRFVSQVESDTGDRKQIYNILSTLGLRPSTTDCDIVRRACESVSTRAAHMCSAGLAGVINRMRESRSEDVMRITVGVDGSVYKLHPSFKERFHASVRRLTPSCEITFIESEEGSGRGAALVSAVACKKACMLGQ
Assay: In vitro GK activity measurement test (G6PDH-coupled, OD340)
Assay type: biochemical
Details: test compound 1 μmol/L; glucose 2.5 mmol/L; 25° C.; OD340 slope with compound / without compound; read-out: GK activation rate (%)
Outline: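 GST-fused human liver glucokinase (variant 2, E. coli-expressed) at 0.1 μg/mL final, in pH 7.1 Hepes with 2.5 mmol/L glucose, 5 mmol/L ATP, NADP and G6PDH coupling, at 25° C. OD340 slope monitored over 10 min. Activation rate is slope with test compound (1 μmol/L) divided by slope without.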

| SMILES | activity at 1 µM [%] |
| --- | --- |
| CONC(=O)CCCSc1cnc(NC(=O)N2CC3(CCN(C(=O)OC)C3)c3cc(Cl)ccc32)s1 (centres unmarked) [Example 168, methyl 5-chloro-1-((5-((4-(methoxyamino)-4-oxobutyl)thio)thiazol-2-yl)carbamoyl)spiro[indoline-3,3′-pyrrolidine]-1′-carboxylate] | 462 |
| COc1ccc2nc(NC(=O)N3CC4(CCN(C(C)=O)C4)c4cc(S(=O)(=O)N(CCO)CC5CC5)ccc43)sc2n1 (centres unmarked) [Example 302, 1′-acetyl-5-(N-(cyclopropylmethyl)-N-(2-hydroxyethyl)sulfamoyl)-N-(5-methoxythiazolo[5,4-b]pyridin-2-yl)spiro[indoline-3,3′-pyrrolidine]-1-carboxamide] | 843 |
| CNC(=O)CCNC(=O)N1CCC2(C1)CN(C(=O)Nc1ncc(Cl)s1)c1ccc(Cl)cc12 (centres unmarked) [Example 465, 5-Chloro-N1-(5-chlorothiazol-2-yl)-N1′-(3-(methylamino)-3-oxopropyl)spiro[indoline-3,3′-pyrrolidine]-1,1′-dicarboxamide] | 474 |
| CNC(=O)N1CCC2(C1)CN(C(=O)Nc1ncc(Cl)s1)c1ccc(CCCC(=O)N3CCC3)cc12 (centres unmarked) [Example 424, 5-(4-(Azetidin-1-yl)-4-oxobutyl)-N1-(5-chlorothiazol-2-yl)-N1′-methylspiro[indoline-3,3′-pyrrolidine]-1,1′-dicarboxamide] | 438 |
| COC(=O)N1CCC2(C1)CN(C(=O)Nc1ncc(Oc3cccc(C(N)=O)c3)s1)c1ccc(Cl)cc12 (centres unmarked) [Example 186, methyl 1-((5-(3-carbamoylphenoxy)thiazol-2-yl)carbamoyl)-5-chlorospiro[indoline-3,3′-pyrrolidine]-1′-carboxylate] | 583 |
| COC(=O)N1CC[C@@]2(C1)CN(C(=O)Nc1ncc(SCC(=O)O)s1)c1ccc(Br)cc12 [Example 336, (S)-2-((2-(5-bromo-1′-(methoxycarbonyl)spiro[indoline-3,3′-pyrrolidin]-1-ylcarboxamido)thiazol-5-yl)thio)acetic acid] | 451 |
| COCCCN(Cc1ccccc1)S(=O)(=O)c1ccc2c(c1)C1(CCN(C(C)=O)C1)CN2C(=O)Nc1nc2ccc(OC)nc2s1 (centres unmarked) [Example 289, 1′-Acetyl-5-(N-benzyl-N-(3-methoxypropyl)sulfamoyl)-N-(5-methoxythiazolo[5,4-b]pyridin-2-yl)spiro[indoline-3,3′-pyrrolidine]-1-carboxamide] | 752 |
| CNC(=O)N1CCC2(C1)CN(C(=O)Nc1ncc(Cl)s1)c1ccc(Cl)cc12 (centres unmarked) [Example 373, 5-chloro-N1-(5-chlorothiazol-2-yl)-N1′-methylspiro[indoline-3,3′-pyrrolidine]-1,1′-dicarboxamide] | 476 |
| COCCCSc1cnc(NC(=O)N2CC3(CCN(C(=O)OC)C3)c3cc(Cl)ccc32)s1 (centres unmarked) [Example 162, Methyl 5-chloro-1-((5-((3-methoxypropyl)thio)thiazol-2-yl)carbamoyl)spiro[indoline-3,3′-pyrrolidine]-1′-carboxylate] | 484 |
| COCCN(CC1CC1)S(=O)(=O)c1ccc2c(c1)C1(CCN(C(C)=O)C1)CN2C(=O)Nc1nc2ccc(OC)nc2s1 (centres unmarked) [Example 300, 1′-Acetyl-5-(N-(cyclopropylmethyl)-N-(2-methoxyethyl)sulfamoyl)-N-(5-methoxythiazolo[5,4-b]pyridin-2-yl)spiro[indoline-3,3′-pyrrolidine]-1-carboxamide] | 689 |
| O=C(NO)N1CCC2(C1)CN(C(=O)Nc1ncc(Cl)s1)c1ccc(Cl)cc12 (centres unmarked) [Example 481, 5-chloro-N1-(5-chlorothiazol-2-yl)-N1′-hydroxyspiro[indoline-3,3′-pyrrolidine]-1,1′-dicarboxamide] | 602 |
| COC(=O)N1CCC2(C1)CN(C(=O)Nc1nc3ccc(OC)nc3s1)c1ccc(S(=O)(=O)N(CCC(=O)O)Cc3ccccc3)cc12 (centres unmarked) [Example 307, 3-(N-benzyl-1′-(methoxycarbonyl)-1-((5-methoxythiazolo[5,4-b]pyridin-2-yl)carbamoyl)spiro[indoline-3,3′-pyrrolidin]-5-ylsulfonamido)propionic acid] | 887 |
| COC(=O)N1CCC2(C1)CN(C(=O)Nc1ncc(SCCCNC(=O)C3CC3)s1)c1ccc(Cl)cc12 (centres unmarked) [Example 454, methyl 5-chloro-1-((5-((3-(cyclopropanecarboxamido)propyl)thio)thiazol-2-yl)carbamoyl)spiro[indoline-3,3′-pyrrolidine]-1′-carboxylate] | 575 |

Test system: normal mice (C57BL/6j mice)
Assay: Oral glucose tolerance test after single administration of test compound in normal mice
Assay type: in vivo
Details: 30 mg/kg oral in 10% Gelucire44/14; 2 g/kg glucose oral 30 minutes later; versus solvent alone; FIG. 1
Method: FIG. 1 is a view showing the results of an oral sugar tolerance test that was carried out after completion of a single administration of the compound of Example 68, in which the 30 mg/kg compound was orally administered to normal mice, and 30 minutes later, 2 g/kg glucose was orally administered thereto, followed by confirmation of a hypoglycemic action of the compound.
The test compound (Example 68) (30 mg/kg) suspended in 10% (v/v) Gelucire44/14 (GATTEFOSSE) was orally administered to normal mice (C57BL/6j mice, CLEA Japan, Inc.). Thirty minutes later, 2 g/kg glucose was orally administered to the mice. The blood glucose level was measured using an automatic blood glucose level measurement apparatus (Medisafe, TERUMO), before administration of the test compound, 25 minutes after administration of the test compound, and 15, 30, 60, and 120 minutes after administration of glucose. Thus, the action of the test compound to lower blood glucose level was evaluated.

| SMILES | blood glucose level (action to lower blood glucose level) |
| --- | --- |
| CC(=O)N1CCC2(C1)CN(C(=O)Nc1ncc(F)s1)c1ccc(Cl)cc12 (centres unmarked) [Example 68, 1′-acetyl-5-chloro-N-(5-fluorothiazol-2-yl)spiro[indoline-3,3′-pyrrolidine]-1-carboxamide] | lower than that of the mice orally administered with the solvent alone |
